Measurements: patent US20020045231A1, “Catalytic antibodies which hydrolyze primary amides and methods for eliciting such antibodies” (priority 1999, published 2002)
Square brackets hold non-standard residues; d marks the D form. Peptide text beside a SMILES is read from it. * marks the point of attachment. Sta = CC(C)C[C@H](N)[C@@H](O)CC(=O)O; Isovaleryl = CC(C)CC(=O)*

Columns and labels:
13D11 [1] = test: Inhibition of 13D11-catalyzed hydrolysis by haptens/inhibitors; type: biochemical, mouse
Protocol: Antibody 13D11 (14.5 μM) was re-screened for activity toward 10 (nominally 500 μM) in the absence and presence of 63 μM (RT-2 hapten)(D/L mixture).
Until this point, 13D11 antibody had been purified by Protein A and DEAE chromatography. To determine whether the activity toward 10 was due to a contaminating enzyme, 13D11 was further purified on a Mono Q column (Pharmacia) by FPLC.
Hapten Ki was determined by quantitating the effect of the concentration of 1b or 1c on the velocity of 13D11 hydrolysis of 2b. Rates obtained at fixed antibody and substrate concentrations were fitted to the equation; V1/Vo=(2[Ab]−[l]−Ki′+{([l]+Ki′−2[Ab])^2+4Ki′2[Ab]}^0.5)/4[Ab], where Vi and Vo are, respectively, the velocities in the presence and absence of hapten, 2[Ab] is the total concentration of antibody combining sites, [l] is hapten concentration, Ki′=Ki/(1+[S]/Km), and Ki is the inhibition constant (S. Cha, Biochem. Pharmacol. 1975, 24, 2177).
Control experiments verified that the hydrolytic activity was not due to a contaminating protease. […] (The (L)-hapten spatially corresponds to the (D)-amide substrate.) The inhibition constant, Ki, was determined by an HPLC assay to be 14.0 (±+1.6) μM.
The substrate specificity of 13D11 was more rigorously determined by monitoring its activity towards the dansylated amides 9 and 10, dansylated esters 11 and 12, acetylated amides 13 and 14, and acetylated esters 15 and 16. The esterolytic activity of 13D11 with the dansylated or acetylated esters (45 μM-1.0 mM) was examined at 25° C. in an assay mixture containing MTEN, 0.1 mM EDTA, 0.1 mM PMSF, 0.01% NaN3, and 13D11 (7-14 μM). Aliquots were removed from the incubation mixtures every hour for 4 hours and kept in ice prior to analysis. The dansylated esters were analyzed by TLC while the acetylated esters were subjected to HPLC analysis. […] The observed esterase activity may be due to a trace of a contaminating enzyme in the antibody preparation.
The amidase activity of 13D11 was likewise examined using the same buffer system as the one mentioned above in the presence of 13D11 (17 μM), and the acetylated amide 13 or 14 (0.5-1.0 mM). […] The ability of 13D11 to discriminate between the dansylated amides 9 and 10 was investigated by determining the formation of the hydrolysis product by TLC. The reaction samples containing 150 μM of either amide 9 or 100 30 μM 13D11, with or without hapten 5 (0.5 mM) in the above buffer system were assayed after 5 days of incubation at 25° C. […] Thus, the activity of the catalytic antibody requires the alkyl linker that was present during immunization, and has a stereospecificity opposite of known natural proteolytic enzymes.
An important control in the examination of the catalytic activity of 13D11 IgG molecule is the retention of the haptenic and substrate binding abilities by its Fab′ fragment. Accordingly, the amidase activities of 13D11 (whole IgG molecule) and the 13D11 Fab′ fragment were compared. The reaction mixtures contained MTEN, 1 mM EDTA, 0.1 mM PMSF, 0.01% NaN3, 150 μM dansylated amide 9 or 100 μM 13D11 (IgG) or Fab′, with or without (assumed) hapten 5 (0.5 mM). […] The esterase activity for the Fab′ fragment was also examined in the above buffer system containing 100 μM of either ester 11 or 12, and 7 μM 13D11 (Fab′). Aliquots were removed at various time points and analyzed by TLC. […] The contaminating enzyme in the antibody solution may have been removed during the purification of the Fab′ fragment.

13D11 [2] = test: Effect of common protease inhibitors on the antibody-catalyzed reaction; type: biochemical, mouse; details: inhibitor concentrations sufficient to abolish the respective proteases
Protocol: Extensive purification of 13D11 was carried out. Monoclonal antibodies were purified from ascites using standard procedures of lipid extraction and ammonium sulfate precipitation followed by column chromatography on protein A, DEAE, Mono Q, and finally Alkyl Superose (Pharmacia, Piscataway, N.J.). Finally, nine common inhibitors of known proteases were tested at concentrations sufficient to completely abolish all for their effect on the antibody-catalyzed reaction.

| Compound | effect on amidolytic activity of 13D11 (13D11 [2]) | also measured |
| --- | --- | --- |
| O=S(=O)(O)CCNC1CCCCC1 [CHES] |  | effect of buffer on hydrolysis of 10 by 13D11 (13D11 [1]; CHES buffer tried as an alternative to Tris): inhibit the hydrolysis |
| CC(=O)NCCCCCC(=O)NC(Cc1ccccc1)P(C)(=O)O (centres unmarked) [Compound 5] |  | Ki (13D11 [1]; 13D11 hydrolysis of 10, HPLC assay, read-out: inhibition constant, Ki): 14 µM; inhibition of esterase activity toward 11 in the 13D11 preparation (13D11 [1]; 25° C., MTEN): not inhibited; inhibition of 13D11 amidase activity toward 10 (13D11 [1]; hapten 5 0.5 mM, 5 days at 25° C., TLC): inhibition of its amidase activity; inhibition of amidase activities of 13D11 IgG and Fab′ (13D11 [1]; hapten 5 0.5 mM, dansylated amide 10): inhibited; inhibition of 13D11 by hapten enantiomers (13D11 [1]; hydrolysis of 10): inhibited 13D11 |
| CC(C)C[C@H](NC(=O)[C@H]1O[C@@H]1C(=O)O)C(=O)NCCCCN=C(N)N [Compound E-64] | Partial inhibition |  |
| O=C(O)CN(CCN(CC(=O)O)CC(=O)O)CC(=O)O [EDTA] | essentially unaffected |  |
| O=S(=O)(F)Cc1ccccc1 [PMSF] | essentially unaffected |  |
| CC(C)C[C@H](NC(=O)[C@@H](O)[C@H](N)Cc1ccccc1)C(=O)O [bestatin] | Partial inhibition |  |
| CC(=O)N[C@@H](CC(C)C)C(=O)N[C@@H](CC(C)C)C(=O)N[C@H](C=O)CCCNC(=N)N [leupeptin] | essentially unaffected |  |
| CC(C)CC(=O)N[C@H](C(=O)N[C@H](C(=O)N[C@@H](CC(C)C)[C@@H](O)CC(=O)N[C@@H](C)C(=O)N[C@@H](CC(C)C)[C@@H](O)CC(=O)O)C(C)C)C(C)C [pepstatin] (Isovaleryl-VV[Sta]A[Sta]-OH) | Partial inhibition |  |
| CC(C)C[C@H](NP(=O)(O)O[C@@H]1O[C@@H](C)[C@H](O)[C@@H](O)[C@H]1O)C(=O)N[C@@H](Cc1c[nH]c2ccccc12)C(=O)O [phosphoramidon] | essentially unaffected |  |
| aprotinin | essentially unaffected |  |
